Data reported in ChEMBL document CHEMBL3885881, “DrugMatrix”.

Species on record: Rattus norvegicus
Assay: DrugMatrix - Regimen: Daily Repeat
Format: toxicity, organism-based, Sprague-Dawley
Parameters: regimen Daily Repeat, gender Male, age 6-8 weeks
Settings: in vivo, po, route oral GAVAGE, vehicle 100 % WATER; for ABSOLUTE BASOPHIL / ABSOLUTE EOSINOPHIL / ABSOLUTE LYMPHOCYTE / ABSOLUTE MONOCYTE / ABSOLUTE SEGMENTED NEUTROPHIL / BASOPHIL / EOSINOPHIL / ERYTHROCYTE COUNT / HEMATOCRIT / HEMOGLOBIN / LEUKOCYTE COUNT / LYMPHOCYTE / MEAN CORPUSCULAR HEMOGLOBIN / MEAN CORPUSCULAR HEMOGLOBIN CONCENTRATION / MEAN CORPUSCULAR VOLUME / MONOCYTE / NEUTROPHIL / NUCLEATED RED BLOOD CELLS / PLATELET COUNT: tissue Blood; for ALANINE AMINOTRANSFERASE / ALBUMIN / ALKALINE PHOSPHATASE / ASPARTATE AMINOTRANSFERASE / BLOOD UREA NITROGEN / CARBON DIOXIDE / CHLORIDE / CHOLESTEROL / CREATINE PHOSPHOKINASE / CREATININE / GLUCOSE / LACTATE DEHYDROGENASE / LIPASE / PHOSPHORUS / POTASSIUM / SODIUM / TOTAL BILIRUBIN / TOTAL PROTEIN / URIC ACID: tissue Plasma
[1] = 0 mg/kg, 72 h, dose level Control, time 3 day
[2] = 0 mg/kg, 120 h, dose level Control, time 5 day
[3] = 50 mg/kg, 72 h, dose level Low, time 3 day
[4] = 50 mg/kg, 120 h, dose level Low, time 5 day

With `CC[C@H]1OC(=O)[C@H](C)[C@@H](O[C@H]2C[C@@](C)(OC)[C@@H](O)[C@H](C)O2)[C@H](C)[C@@H](O[C@@H]2O[C@H](C)C[C@H](N(C)C)[C@H]2O)[C@](C)(O)C[C@@H](C)CN(C)[C@H](C)[C@@H](O)[C@]1(C)O` [AZITHROMYCIN] the “ABSOLUTE BASOPHIL” value [1] was 0 CELLS/uL, the “ABSOLUTE EOSINOPHIL” value [1] was 33.67 CELLS/uL and the “ABSOLUTE LYMPHOCYTE” value [1] was 11257.17 CELLS/uL. The “ABSOLUTE MONOCYTE” value [1] was 72.17 CELLS/uL, the “ABSOLUTE SEGMENTED NEUTROPHIL” value [1] was 1220.33 CELLS/uL and the BASOPHIL [1] was 0%. For the same compound, the EOSINOPHIL [1] was 0.33%, the “ERYTHROCYTE COUNT” value [1] was 5 x10E6/uL and the HEMATOCRIT [1] was 32.62%. The HEMOGLOBIN [1] was 12.83 G/DL, the “LEUKOCYTE COUNT” value [1] was 12.58 x10E3/uL and the LYMPHOCYTE [1] was 89%. For the same compound, the “MEAN CORPUSCULAR HEMOGLOBIN” value [1] was 25.67 pg, the “MEAN CORPUSCULAR HEMOGLOBIN CONCENTRATION” value [1] was 39.35 G/DL and the “MEAN CORPUSCULAR VOLUME” value [1] was 65.23 fL. The MONOCYTE [1] was 0.67%, the NEUTROPHIL [1] was 10% and the “NUCLEATED RED BLOOD CELLS” value [1] was 0 /100WBC. For the same compound, the “PLATELET COUNT” value [1] was 1162.5 x10E3/uL, the “ALANINE AMINOTRANSFERASE” value [1] was 45.33 u/L and the ALBUMIN [1] was 3.95 G/DL. The “ALKALINE PHOSPHATASE” value [1] was 356.17 u/L, the “ASPARTATE AMINOTRANSFERASE” value [1] was 81 u/L and the “BLOOD UREA NITROGEN” value [1] was 11 mg/dL. For the same compound, the “CARBON DIOXIDE” value [1] was 29.83 mmol/L, the CHLORIDE [1] was 97.8 MEQ/L and the CHOLESTEROL [1] was 65.17 mg/dL. For the same compound, the “CREATINE PHOSPHOKINASE” value [1] was 211.33 u/L, the CREATININE [1] was 0.11 mg/dL and the GLUCOSE [1] was 164.67 mg/dL. For the same compound, the “LACTATE DEHYDROGENASE” value [1] was 143.17 u/L, the LIPASE [1] was 10.17 u/L and the PHOSPHORUS [1] was 10.88 mg/dL. For the same compound, the POTASSIUM [1] was 6.08 MEQ/L, the SODIUM [1] was 141.54 MEQ/L and the “TOTAL BILIRUBIN” value [1] was 0.23 mg/dL. For the same compound, the “TOTAL PROTEIN” value [1] was 5.65 G/DL, the “URIC ACID” value [1] was 1 mg/dL and the “ABSOLUTE BASOPHIL” value [2] was 0 CELLS/uL. The “ABSOLUTE EOSINOPHIL” value [2] was 48.67 CELLS/uL, the “ABSOLUTE LYMPHOCYTE” value [2] was 9267.83 CELLS/uL and the “ABSOLUTE MONOCYTE” value [2] was 194.33 CELLS/uL. The “ABSOLUTE SEGMENTED NEUTROPHIL” value [2] was 572.5 CELLS/uL, the BASOPHIL [2] was 0% and the EOSINOPHIL [2] was 0.33%. The “ERYTHROCYTE COUNT” value [2] was 5.41 x10E6/uL, the HEMATOCRIT [2] was 36.17% and the HEMOGLOBIN [2] was 13.9 G/DL. For the same compound, the “LEUKOCYTE COUNT” value [2] was 10.08 x10E3/uL, the LYMPHOCYTE [2] was 92.17% and the “MEAN CORPUSCULAR HEMOGLOBIN” value [2] was 25.73 pg. The “MEAN CORPUSCULAR HEMOGLOBIN CONCENTRATION” value [2] was 38.45 G/DL, the “MEAN CORPUSCULAR VOLUME” value [2] was 66.97 fL and the MONOCYTE [2] was 1.83%. The NEUTROPHIL [2] was 5.67%, the “NUCLEATED RED BLOOD CELLS” value [2] was 0.33 /100WBC and the “PLATELET COUNT” value [2] was 1122.33 x10E3/uL. For the same compound, the “ALANINE AMINOTRANSFERASE” value [2] was 52.83 u/L, the ALBUMIN [2] was 4.12 G/DL and the “ALKALINE PHOSPHATASE” value [2] was 367.33 u/L. For the same compound, the “ASPARTATE AMINOTRANSFERASE” value [2] was 88 u/L, the “BLOOD UREA NITROGEN” value [2] was 12.67 mg/dL and the “CARBON DIOXIDE” value [2] was 33.67 mmol/L. For the same compound, the CHLORIDE [2] was 97 MEQ/L, the CHOLESTEROL [2] was 67.5 mg/dL and the “CREATINE PHOSPHOKINASE” value [2] was 358.67 u/L. For the same compound, the CREATININE [2] was 0.14 mg/dL, the GLUCOSE [2] was 152.33 mg/dL and the “LACTATE DEHYDROGENASE” value [2] was 180 u/L. For the same compound, the LIPASE [2] was 10.5 u/L, the PHOSPHORUS [2] was 10.63 mg/dL and the POTASSIUM [2] was 5.99 MEQ/L. The SODIUM [2] was 141.85 MEQ/L, the “TOTAL BILIRUBIN” value [2] was 0.2 mg/dL and the “TOTAL PROTEIN” value [2] was 6.18 G/DL. The “URIC ACID” value [2] was 0.52 mg/dL, the “ABSOLUTE BASOPHIL” value [3] was 0 CELLS/uL and the “ABSOLUTE EOSINOPHIL” value [3] was 0 CELLS/uL. The “ABSOLUTE LYMPHOCYTE” value [3] was 14976.33 CELLS/uL, the “ABSOLUTE MONOCYTE” value [3] was 50 CELLS/uL and the “ABSOLUTE SEGMENTED NEUTROPHIL” value [3] was 1373.67 CELLS/uL. For the same compound, the BASOPHIL [3] was 0%, the EOSINOPHIL [3] was 0% and the “ERYTHROCYTE COUNT” value [3] was 5.24 x10E6/uL. The HEMATOCRIT [3] was 34.53%, the HEMOGLOBIN [3] was 13.33 G/DL and the “LEUKOCYTE COUNT” value [3] was 16.4 x10E3/uL. The LYMPHOCYTE [3] was 91.33%, the “MEAN CORPUSCULAR HEMOGLOBIN” value [3] was 25.5 pg and the “MEAN CORPUSCULAR HEMOGLOBIN CONCENTRATION” value [3] was 38.67 G/DL. The “MEAN CORPUSCULAR VOLUME” value [3] was 65.87 fL, the MONOCYTE [3] was 0.33% and the NEUTROPHIL [3] was 8.33%. For the same compound, the “NUCLEATED RED BLOOD CELLS” value [3] was 0.33 /100WBC, the “PLATELET COUNT” value [3] was 1013.33 x10E3/uL and the “ALANINE AMINOTRANSFERASE” value [3] was 52.67 u/L. The ALBUMIN [3] was 3.97 G/DL, the “ALKALINE PHOSPHATASE” value [3] was 324 u/L and the “ASPARTATE AMINOTRANSFERASE” value [3] was 77 u/L. For the same compound, the “BLOOD UREA NITROGEN” value [3] was 13 mg/dL, the “CARBON DIOXIDE” value [3] was 30 mmol/L and the CHLORIDE [3] was 98.33 MEQ/L. For the same compound, the CHOLESTEROL [3] was 80.67 mg/dL, the “CREATINE PHOSPHOKINASE” value [3] was 196 u/L and the CREATININE [3] was 0.11 mg/dL. For the same compound, the GLUCOSE [3] was 165 mg/dL, the “LACTATE DEHYDROGENASE” value [3] was 154 u/L and the LIPASE [3] was 9.33 u/L. The PHOSPHORUS [3] was 11.37 mg/dL, the POTASSIUM [3] was 6.42 MEQ/L and the SODIUM [3] was 143.1 MEQ/L. For the same compound, the “TOTAL BILIRUBIN” value [3] was 0.2 mg/dL, the “TOTAL PROTEIN” value [3] was 5.87 G/DL and the “URIC ACID” value [3] was 0.83 mg/dL. The “ABSOLUTE BASOPHIL” value [4] was 0 CELLS/uL, the “ABSOLUTE EOSINOPHIL” value [4] was 59.33 CELLS/uL and the “ABSOLUTE LYMPHOCYTE” value [4] was 8956 CELLS/uL. For the same compound, the “ABSOLUTE MONOCYTE” value [4] was 157 CELLS/uL, the “ABSOLUTE SEGMENTED NEUTROPHIL” value [4] was 561 CELLS/uL and the BASOPHIL [4] was 0%. For the same compound, the EOSINOPHIL [4] was 0.67%, the “ERYTHROCYTE COUNT” value [4] was 5.03 x10E6/uL and the HEMATOCRIT [4] was 33.47%. For the same compound, the HEMOGLOBIN [4] was 12.9 G/DL, the “LEUKOCYTE COUNT” value [4] was 9.73 x10E3/uL and the LYMPHOCYTE [4] was 91.67%. The “MEAN CORPUSCULAR HEMOGLOBIN” value [4] was 25.73 pg, the “MEAN CORPUSCULAR HEMOGLOBIN CONCENTRATION” value [4] was 38.57 G/DL and the “MEAN CORPUSCULAR VOLUME” value [4] was 66.63 fL. The MONOCYTE [4] was 1.67%, the NEUTROPHIL [4] was 6% and the “NUCLEATED RED BLOOD CELLS” value [4] was 0 /100WBC. The “PLATELET COUNT” value [4] was 1159 x10E3/uL, the “ALANINE AMINOTRANSFERASE” value [4] was 55.33 u/L and the ALBUMIN [4] was 3.87 G/DL. The “ALKALINE PHOSPHATASE” value [4] was 346 u/L, the “ASPARTATE AMINOTRANSFERASE” value [4] was 85.33 u/L and the “BLOOD UREA NITROGEN” value [4] was 13.33 mg/dL. The “CARBON DIOXIDE” value [4] was 33.67 mmol/L, the CHLORIDE [4] was 98.33 MEQ/L and the CHOLESTEROL [4] was 66.33 mg/dL. For the same compound, the “CREATINE PHOSPHOKINASE” value [4] was 375.33 u/L, the CREATININE [4] was 0.18 mg/dL and the GLUCOSE [4] was 143.67 mg/dL. The “LACTATE DEHYDROGENASE” value [4] was 176.67 u/L, the LIPASE [4] was 12.33 u/L and the PHOSPHORUS [4] was 11.3 mg/dL. The POTASSIUM [4] was 5.91 MEQ/L, the SODIUM [4] was 142.67 MEQ/L and the “TOTAL BILIRUBIN” value [4] was 0.13 mg/dL. For the same compound, the “TOTAL PROTEIN” value [4] was 5.9 G/DL and the “URIC ACID” value [4] was 0.37 mg/dL.
